Experimental data as given in article PMC10318822, “Phase 1 dose-escalation study to evaluate the safety, tolerability, pharmacokinetics, and anti-tumor activity of FCN-159 in adults with neurofibromatosis type 1-related unresectable plexiform neurofibromas” (BMC Medicine, 2023).

System: adult patients with NF1-related PN
Experiment: Phase I dose-escalation: DLT, MTD, RP2D and drug-related TEAEs (CTCAE v5.0)
Description: This is a multicenter, open-label, single-arm, non-randomized, phase I dose-escalation trial to evaluate the safety, tolerability, pharmacokinetic (PK), and anti-tumor activity of orally administered FCN-159 in adult patients with NF1 (NCT04954001). Phase I commenced with dose escalation in adult patients following a standard 3 + 3 design (Supplementary Table S1) to determine the maximum tolerated dose (MTD) of FCN-159 administered daily under fasting conditions (defined as no food or drink 1 h before and 2 h after each dose) in 28-day cycles. Study drug was dispensed at the study site and patient adherence was monitored by the records of drug dispensation and return. Patients were on treatment until PD, death, patient's voluntary withdrawal from study treatment, or study termination. The study was followed for 2 years after the last patient in. The starting dose was 4 mg, escalating in cohorts of at least three evaluable patients at 6 mg, 8 mg, and 12 mg until the MTD was determined. The starting dose in this study was determined based on available data from a phase 1a, first-in-human study of FCN-159 in patients with advanced NRAS ^mut+ melanoma at the time of study design. […] Dose expansion at a likely RP2D level enrolled approximately six patients. The highest dose level with a dose-limiting toxicity (DLT) incidence rate ≤ 33% (0/3 or 1/6 patients) was to be considered the MTD. If patients experienced grade ≥ 3 and/or unacceptable toxic events that were considered as at least possibly related to the study treatment, the study treatment was discontinued and supportive treatment was given in accordance with local treatment routines. If the toxicity returned to grade ≤ 2 within 28 days after the occurrence, and there was no progression on patients’ conditions or the investigator believed that patients could benefit from the study treatment, the original dose could be maintained or reduced after discussion with medical monitor. After completion of the dose escalation part of the study, PK, efficacy, safety, and tolerability data were analyzed to select the RP2D.
Primary endpoints of the study were the DLT incidence rate, MTD, and RP2D. Secondary endpoints included other safety assessments, imaging tumor response (complete response [CR], PR, stable disease [SD], or progressive disease [PD]), and PK parameters of FCN-159. Adverse events were graded per CTCAE v5.0.
All patients underwent a complete medical history, physical examination, Eastern Cooperative Oncology Group (ECOG) assessment, and laboratory analysis of test results. Drug-related TEAEs, serious adverse events (SAEs), TEAEs of grade ≥ 3 toxicity, and TEAEs leading to drug discontinuation were reviewed on an ongoing basis. Efficacy was assessed by radiologic scans and clinical assessment. Tumor assessments per Response Evaluation in Neurofibromatosis Schwannomatosis criteria were performed by investigators using MRI volumetric analysis every 4 cycles within the first 2 years (± 7 days) and every 6 cycles after 2 years (± 14 days) until PD, death, patient's voluntary withdrawal from study treatment, or study termination. MRI sequences of […], T1- and T2-weighted sequences were chosen and the software of Extended Brilliance Workspace, SIGNA Premier and uExceed were used for MRI volumetric analysis. The same software was used for all tumor assessments at baseline and subsequent assessed timepoints of the same patient. Pain was assessed by an 11-point numerical rating scale (NRS-11).
The sample size for the dose-escalation study was estimated to be 24 based on the 3 + 3 method. Safety was analyzed in patients who received at least one dose of FCN-159 and had at least one safety assessment. DLT was assessed in the DLT analysis set, defined as patients who were enrolled in the dose-escalation study and met the DLT evaluation criteria.

Cn1c(=O)c(F)c(Nc2ccc(I)cc2F)c2c(=O)n(C3CC3)nc(-c3cccc(NS(=O)(=O)C4CC4)c3)c21 [FCN-159]
2 (50.0) n (%): Drug-related TEAE: Drug eruption (6 mg (N = 4)) | Drug-related TEAE: Paronychia (6 mg (N = 4)) | Drug-related TEAE: Protein urine present (6 mg (N = 4)) | Drug-related TEAE: Specific gravity urine increased (6 mg (N = 4)) | Drug-related TEAE: Stomatitis (6 mg (N = 4)) | Drug-related TEAE: Total bile acids increased (6 mg (N = 4)) | Drug-related TEAE: Urobilinogen urine increased (6 mg (N = 4))
0 n (%): Drug-related TEAE: Decreased appetite (6 mg (N = 4)) | Drug-related TEAE: Dermatitis acneiform (6 mg (N = 4)) | Drug-related TEAE: Diarrhea (6 mg (N = 4)) | Drug-related TEAE: Dyslipidemia (6 mg (N = 4)) | Drug-related TEAE: Ejection fraction decreased (6 mg (N = 4)) | Drug-related TEAE: Electrocardiogram QT prolonged (6 mg (N = 4)) | Drug-related TEAE: Electrocardiogram abnormal (6 mg (N = 4)) | Drug-related TEAE: Epistaxis (6 mg (N = 4)) | Drug-related TEAE: Functional gastrointestinal disorder (6 mg (N = 4)) | Drug-related TEAE: Gingival pain (6 mg (N = 4)) | Drug-related TEAE: Hyperlipidemia (6 mg (N = 4)) | Drug-related TEAE: Hypertension (6 mg (N = 4)) | Drug-related TEAE: Hypoalbuminemia (6 mg (N = 4)) | Drug-related TEAE: Hypophosphatemia (6 mg (N = 4)) | Drug-related TEAE: Hypoproteinemia (6 mg (N = 4)) | Drug-related TEAE: Impetigo (6 mg (N = 4)) | Drug-related TEAE: Left atrial enlargement (6 mg (N = 4)) | Drug-related TEAE: Lipoprotein abnormal (6 mg (N = 4)) | Drug-related TEAE: Malaise (6 mg (N = 4)) | Drug-related TEAE: Menstrual disorder (6 mg (N = 4)) | Drug-related TEAE: Mouth ulceration (6 mg (N = 4)) | Drug-related TEAE: Muscular weakness (6 mg (N = 4)) | Drug-related TEAE: Pain in extremity (6 mg (N = 4)) | Drug-related TEAE: Prealbumin decreased (6 mg (N = 4)) | Drug-related TEAE: Pruritus (6 mg (N = 4)) | Drug-related TEAE: QRS axis abnormal (6 mg (N = 4)) | Drug-related TEAE: Sinus arrhythmia (6 mg (N = 4)) | Drug-related TEAE: Sinus bradycardia (6 mg (N = 4)) | Drug-related TEAE: Sinusitis (6 mg (N = 4)) | Drug-related TEAE: Skin exfoliation (6 mg (N = 4)) | Drug-related TEAE: Supraventricular extrasystoles (6 mg (N = 4)) | Drug-related TEAE: Urinary sediment present (6 mg (N = 4)) | Drug-related TEAE: Urine ketone body present (6 mg (N = 4)) | Drug-related TEAE: Urticaria (6 mg (N = 4)) | Drug-related TEAE: Vision blurred (6 mg (N = 4)) | Drug-related TEAE: pH urine increased (6 mg (N = 4)) | Drug-related TEAE: Acne (8 mg (N = 8)) | Drug-related TEAE: Amylase increased (8 mg (N = 8)) | Drug-related TEAE: Aspartate aminotransferase increased (8 mg (N = 8)) | Drug-related TEAE: Asthenia (8 mg (N = 8)) | Drug-related TEAE: Beta globulin decreased (8 mg (N = 8)) | Drug-related TEAE: Beta globulin increased (8 mg (N = 8)) | Drug-related TEAE: Blood fibrinogen increased (8 mg (N = 8)) | Drug-related TEAE: Blood pressure increased (8 mg (N = 8)) | Drug-related TEAE: Blood uric acid increased (8 mg (N = 8)) | Drug-related TEAE: Capillary disorder (8 mg (N = 8)) | Drug-related TEAE: Electrocardiogram abnormal (8 mg (N = 8)) | Drug-related TEAE: Gamma-glutamyltransferase increased (8 mg (N = 8)) | Drug-related TEAE: Hyperlipidemia (8 mg (N = 8)) | Drug-related TEAE: Impetigo (8 mg (N = 8)) | Drug-related TEAE: Lipoprotein abnormal (8 mg (N = 8)) | Drug-related TEAE: Malaise (8 mg (N = 8)) | Drug-related TEAE: Menstrual disorder (8 mg (N = 8))
1 (12.5) n (%): Drug-related TEAE: Abdominal pain (8 mg (N = 8)) | Drug-related TEAE: Acne pustular (8 mg (N = 8)) | Drug-related TEAE: Alanine aminotransferase increased (8 mg (N = 8)) | Drug-related TEAE: Albumin globulin ratio decreased (8 mg (N = 8)) | Drug-related TEAE: Alopecia (8 mg (N = 8)) | Drug-related TEAE: Anemia (8 mg (N = 8)) | Drug-related TEAE: Aortic dilatation (8 mg (N = 8)) | Drug-related TEAE: Blood lactate dehydrogenase increased (8 mg (N = 8)) | Drug-related TEAE: Blood urea increased (8 mg (N = 8)) | Drug-related TEAE: Breath odor (8 mg (N = 8)) | Drug-related TEAE: Constipation (8 mg (N = 8)) | Drug-related TEAE: Decreased appetite (8 mg (N = 8)) | Drug-related TEAE: Dermatitis acneiform (8 mg (N = 8)) | Drug-related TEAE: Diarrhea (8 mg (N = 8)) | Drug-related TEAE: Dyslipidemia (8 mg (N = 8)) | Drug-related TEAE: Ejection fraction decreased (8 mg (N = 8)) | Drug-related TEAE: Electrocardiogram QT prolonged (8 mg (N = 8)) | Drug-related TEAE: Epistaxis (8 mg (N = 8)) | Drug-related TEAE: Functional gastrointestinal disorder (8 mg (N = 8)) | Drug-related TEAE: Gingival pain (8 mg (N = 8)) | Drug-related TEAE: Hypertension (8 mg (N = 8)) | Drug-related TEAE: Hypoalbuminemia (8 mg (N = 8)) | Drug-related TEAE: Hypocalcemia (8 mg (N = 8)) | Drug-related TEAE: Hypophosphatemia (8 mg (N = 8)) | Drug-related TEAE: Hypoproteinemia (8 mg (N = 8)) | Drug-related TEAE: Immunoglobulins increased (8 mg (N = 8)) | Drug-related TEAE: Left atrial enlargement (8 mg (N = 8))
3 (37.5) n (%): Drug-related TEAE: Blood alkaline phosphatase increased (8 mg (N = 8))
4 (50.0) n (%): Drug-related TEAE: Folliculitis (8 mg (N = 8))
4 (100) n (%): Subjects with any drug-related TEAE (6 mg (N = 4))
1 (25.0) n (%): Drug-related TEAE: Folliculitis (6 mg (N = 4)) | Drug-related TEAE: Gamma-glutamyltransferase increased (6 mg (N = 4)) | Drug-related TEAE: Hypocalcemia (6 mg (N = 4)) | Drug-related TEAE: Immunoglobulins increased (6 mg (N = 4)) | Drug-related TEAE: Mitral valve incompetence (6 mg (N = 4)) | Drug-related TEAE: Oedema peripheral (6 mg (N = 4)) | Drug-related TEAE: Rash (6 mg (N = 4)) | Drug-related TEAE: Tricuspid valve incompetence (6 mg (N = 4)) | Drug-related TEAE: Urinary occult blood positive (6 mg (N = 4)) | Drug-related TEAE: Urinary tract infection (6 mg (N = 4)) | Drug-related TEAE: Visual acuity reduced (6 mg (N = 4)) | Drug-related TEAE: pH urine decreased (6 mg (N = 4))
2 (25.0) n (%): Drug-related TEAE: Blood bilirubin increased (8 mg (N = 8)) | Drug-related TEAE: Blood creatine phosphokinase increased (8 mg (N = 8)) | Drug-related TEAE: Drug eruption (8 mg (N = 8)) | Drug-related TEAE: Mitral valve incompetence (8 mg (N = 8))
